The record followed here is ChEMBL document CHEMBL4837186, “Structural Elucidation of Garcipaucinones A and B From Garcinia paucinervis Using Quantum Chemical Calculations” (J Nat Prod, 2021).

For orientation: IC50 means the concentration that inhibits the measured activity by half.

Assay type in all cases: functional, cell-based
For experiment [1], the system named is T98G. The experiment is described as follows: Cytotoxicity against human T98 cells assessed as reduction in cell viability after 24 hrs by CCK8 assay.
In experiment [2] the test system is RAW264.7. The experiment is described as follows: Anti-inflammatory activity in mouse RAW264.7 cells assessed as inhibition of LPS-induced NO production after 24 hrs by Griess reagent-based assay. To be noted: RAW264.7, 24 h. A general note: Griess reagent forms a coloured azo dye with nitrite.
Experiment [3] relates to HepG2. Description: Cytotoxicity against human HepG2 cells assessed as reduction in cell viability after 24 hrs by CCK8 assay. To be noted: HepG2, 24 h. A general note: Tetrazolium dyes change colour on reduction, which living cells bring about.
Experiment [4] deals with MCF7. The experiment is described as follows: Cytotoxicity against human MCF7 cells assessed as reduction in cell viability after 24 hrs by CCK8 assay. To be noted: MCF7, 24 h.

With `CC(C)=CCC/C(C)=C/CC/C(C)=C/CC[C@]1(C)CCC2=C(O1)[C@]1(C)C[C@@](O)(Oc3c1occc3=O)C2=O`, the IC50 in experiment [1], in experiment [2], in experiment [3] and in experiment [4] was > 20 µM in each case.

As to `CC(C)=CCC/C(C)=C/CC/C(C)=C/CC[C@]1(C)CCC2=C(O1)[C@@]1(C)C[C@](O)(Oc3c1occc3=O)C2=O`, the IC50 in experiment [1], in experiment [2], in experiment [3] and in experiment [4] was > 20 µM in each case.

For `C[C@@H]1C[C@H]2[C@@H]3CCC4=CC(=O)C=C[C@]4(C)[C@@]3(F)[C@@H](O)C[C@]2(C)[C@@]1(O)C(=O)CO` [DEXAMETHASONE], the IC50 in experiment [2] is 8.28 µM.
